Laboratory results published in ChEMBL document CHEMBL4052827, “Discovery of Tetrahydroisoquinoline-Containing CXCR4 Antagonists with Improved in Vitro ADMET Properties” (J Med Chem, 2018).

Key:
[1] = Antagonist activity at mAChR in human CCRF-CEM cells assessed as decrease in acetylacholine-stimulated Ca2+ flux preincubated for 25 mins followed by acetylacholine addition measured for 90 secs by calcium dye-based fluorescence assay; format: cell-based
[2] = Agonist activity at mAChR in human CCRF-CEM cells assessed as induction of Ca2+ flux measured for 90 secs by calcium dye-based fluorescence assay; format: cell-based
[3] = target: T1, C-X-C chemokine receptor type 4 (Homo sapiens, UniProt P61073); assay: Antagonist activity at human CXCR4 in CCRF-CEM cells assessed as decrease in SDF-1alpha stimulated Ca2+ flux preincubated for 25 mins followed by SDF-1alpha addition measured for 90 secs by calcium dye-based fluorescence assay; format: functional, cell-based
[4] = target: T1, C-X-C chemokine receptor type 4; assay: Agonist activity at CXCR4 in human CCRF-CEM cells assessed as induction of Ca2+ flux measured for 90 secs by calcium dye-based fluorescence assay; format: functional, cell-based
[5] = target: Cytochrome P450 2D6 (Homo sapiens, UniProt P10635); assay: Inhibition of recombinant human CYP2D6 expressed in microsomes of insect cells using AMMC as substrate preincubated for 30 mins followed by NADP addition after 45 mins by fluorescence analysis
[6] = Permeability of the compound at pH 7.4 at 100 uM after 4 hrs by PAMPA
[7] = Metabolic stability in mouse liver microsomes assessed as parent compound remaining at 0.5 uM after 10 mins in presence of NADPH by LC-MS/MS analysis
[8] = Permeability of the compound at pH 5.5 at 100 uM after 4 hrs by PAMPA
[9] = Metabolic stability in human liver microsomes assessed as parent compound remaining at 0.5 uM after 10 mins in presence of NADPH by LC-MS/MS analysis
[10] = target: C-X-C chemokine receptor type 4 (Mus musculus, UniProt P70658); assay: Antagonist activity at mouse CXCR4
[11] = Inhibition of CYP1A4 (unknown origin)
[12] = target: Cytochrome P450 2C9 (Homo sapiens, UniProt P11712); assay: Inhibition of CYP2C9 (unknown origin)
[13] = target: T2, Cytochrome P450 2C8 (Homo sapiens, UniProt P10632); assay: Inhibition of CYP2C8 (unknown origin)
T2 sequence (P10632 whole entry): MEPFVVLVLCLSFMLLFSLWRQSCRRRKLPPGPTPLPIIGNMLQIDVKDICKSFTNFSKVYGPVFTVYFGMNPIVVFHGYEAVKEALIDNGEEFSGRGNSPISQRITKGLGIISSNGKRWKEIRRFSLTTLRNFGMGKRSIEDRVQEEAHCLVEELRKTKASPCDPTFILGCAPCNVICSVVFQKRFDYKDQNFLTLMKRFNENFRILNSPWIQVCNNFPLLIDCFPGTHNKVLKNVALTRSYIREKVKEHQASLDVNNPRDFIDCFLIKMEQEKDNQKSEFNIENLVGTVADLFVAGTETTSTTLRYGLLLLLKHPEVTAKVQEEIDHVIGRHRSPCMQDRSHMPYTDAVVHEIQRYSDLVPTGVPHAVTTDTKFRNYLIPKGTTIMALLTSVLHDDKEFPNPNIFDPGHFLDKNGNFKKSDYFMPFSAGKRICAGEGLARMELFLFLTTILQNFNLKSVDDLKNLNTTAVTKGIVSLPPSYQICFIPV

[14] = target: Cytochrome P450 2C19 (Homo sapiens, UniProt P33261); assay: Inhibition of CYP2C19 (unknown origin)
[15] = target: Cytochrome P450 3A4 (Homo sapiens, UniProt P08684); assay: Inhibition of CYP3A4 (unknown origin)
[16] = Half life in human liver microsomes; format: ADME, microsome
[17] = Half life in rat Plasma; format: ADME, cell-free
[18] = species: Homo sapiens; assay: Inhibition of chemokine receptor (unknown origin) at 10 uM

C-X-C chemokine receptor type 4 (Mus musculus, UniProt P70658), sequence (P70658 whole entry): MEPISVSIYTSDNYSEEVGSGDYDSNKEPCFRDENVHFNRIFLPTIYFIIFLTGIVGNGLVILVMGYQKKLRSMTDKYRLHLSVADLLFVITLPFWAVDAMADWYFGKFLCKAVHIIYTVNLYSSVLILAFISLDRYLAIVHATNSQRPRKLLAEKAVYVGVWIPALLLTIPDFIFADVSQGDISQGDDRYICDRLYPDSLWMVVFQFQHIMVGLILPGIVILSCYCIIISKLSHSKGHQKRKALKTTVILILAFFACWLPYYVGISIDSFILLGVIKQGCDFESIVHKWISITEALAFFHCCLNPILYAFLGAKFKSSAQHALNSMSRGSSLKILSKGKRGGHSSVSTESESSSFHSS
Cytochrome P450 2C19, sequence (P33261 whole entry): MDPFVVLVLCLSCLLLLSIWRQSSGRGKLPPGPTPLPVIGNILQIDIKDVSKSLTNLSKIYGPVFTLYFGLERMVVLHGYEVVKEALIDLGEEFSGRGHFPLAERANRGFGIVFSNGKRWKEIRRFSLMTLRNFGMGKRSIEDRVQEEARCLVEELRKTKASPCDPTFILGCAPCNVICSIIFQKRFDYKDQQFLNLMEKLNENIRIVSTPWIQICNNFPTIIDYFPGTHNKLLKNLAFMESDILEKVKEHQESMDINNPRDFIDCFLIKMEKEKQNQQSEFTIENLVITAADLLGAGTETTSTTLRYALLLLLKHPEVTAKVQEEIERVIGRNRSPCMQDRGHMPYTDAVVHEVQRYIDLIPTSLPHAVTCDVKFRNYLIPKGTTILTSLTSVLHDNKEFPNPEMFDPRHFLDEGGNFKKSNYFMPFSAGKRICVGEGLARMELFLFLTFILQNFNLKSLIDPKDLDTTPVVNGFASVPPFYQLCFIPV
Cytochrome P450 2C9, sequence (P11712 whole entry): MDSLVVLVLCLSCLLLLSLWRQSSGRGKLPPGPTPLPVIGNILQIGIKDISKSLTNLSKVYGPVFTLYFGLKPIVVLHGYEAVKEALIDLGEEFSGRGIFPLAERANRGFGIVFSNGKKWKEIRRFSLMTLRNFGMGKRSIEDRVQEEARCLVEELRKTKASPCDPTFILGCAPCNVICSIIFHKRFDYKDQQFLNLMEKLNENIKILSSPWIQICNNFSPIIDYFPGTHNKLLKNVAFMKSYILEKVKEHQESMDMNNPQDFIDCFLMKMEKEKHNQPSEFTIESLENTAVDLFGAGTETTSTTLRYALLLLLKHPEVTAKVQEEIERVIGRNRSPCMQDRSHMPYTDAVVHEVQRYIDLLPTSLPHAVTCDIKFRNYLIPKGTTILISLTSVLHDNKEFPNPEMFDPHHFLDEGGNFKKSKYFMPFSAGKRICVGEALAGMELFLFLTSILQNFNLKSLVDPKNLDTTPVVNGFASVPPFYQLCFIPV
Cytochrome P450 3A4, sequence (P08684 whole entry): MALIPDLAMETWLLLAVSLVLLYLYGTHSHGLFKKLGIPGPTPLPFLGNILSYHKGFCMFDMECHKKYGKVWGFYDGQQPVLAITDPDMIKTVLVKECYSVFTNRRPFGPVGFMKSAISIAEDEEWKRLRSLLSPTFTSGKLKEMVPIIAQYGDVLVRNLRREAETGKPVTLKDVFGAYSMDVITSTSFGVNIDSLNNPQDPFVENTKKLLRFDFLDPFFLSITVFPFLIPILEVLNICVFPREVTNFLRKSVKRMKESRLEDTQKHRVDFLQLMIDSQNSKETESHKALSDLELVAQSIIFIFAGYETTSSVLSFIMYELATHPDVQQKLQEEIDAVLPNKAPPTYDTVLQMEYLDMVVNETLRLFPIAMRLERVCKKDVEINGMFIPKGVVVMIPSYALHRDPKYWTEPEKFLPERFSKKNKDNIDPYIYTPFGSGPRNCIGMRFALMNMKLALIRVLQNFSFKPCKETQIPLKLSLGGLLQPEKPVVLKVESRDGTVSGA
T1 sequence (P61073 whole entry): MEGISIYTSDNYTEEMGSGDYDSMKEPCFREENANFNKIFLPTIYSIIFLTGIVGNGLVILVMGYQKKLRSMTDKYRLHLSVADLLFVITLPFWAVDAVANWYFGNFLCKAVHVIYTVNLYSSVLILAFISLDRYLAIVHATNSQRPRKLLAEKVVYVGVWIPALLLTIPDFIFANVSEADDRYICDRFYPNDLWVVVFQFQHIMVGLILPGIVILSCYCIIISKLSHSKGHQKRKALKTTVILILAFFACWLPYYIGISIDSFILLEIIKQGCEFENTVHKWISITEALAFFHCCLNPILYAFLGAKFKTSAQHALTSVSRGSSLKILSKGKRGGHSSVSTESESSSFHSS
Cytochrome P450 2D6, sequence (P10635 whole entry): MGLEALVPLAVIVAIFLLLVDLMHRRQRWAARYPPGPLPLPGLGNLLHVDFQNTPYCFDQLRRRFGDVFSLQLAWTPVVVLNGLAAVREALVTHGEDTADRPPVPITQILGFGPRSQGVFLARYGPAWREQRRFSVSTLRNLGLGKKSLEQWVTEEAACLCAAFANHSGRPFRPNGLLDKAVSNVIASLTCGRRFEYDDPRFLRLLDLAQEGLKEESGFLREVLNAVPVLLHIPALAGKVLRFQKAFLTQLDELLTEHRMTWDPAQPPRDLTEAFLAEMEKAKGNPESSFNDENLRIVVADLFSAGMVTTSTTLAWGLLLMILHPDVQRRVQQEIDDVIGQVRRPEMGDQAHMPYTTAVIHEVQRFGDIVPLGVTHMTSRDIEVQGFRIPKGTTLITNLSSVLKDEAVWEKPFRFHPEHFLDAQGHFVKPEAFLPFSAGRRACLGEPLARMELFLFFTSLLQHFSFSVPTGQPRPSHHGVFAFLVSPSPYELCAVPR

Row | IC50 [1] [µM] | EC50 [2] [µM] | IC50 [3] [µM] | EC50 [4] [µM] | IC50 [5] [µM] | Papp at 4 h, 100 µM [6] [×10⁻⁶ cm/s] | remaining at 10 min, 0.5 µM [7] [%] | Papp at 4 h, 100 µM [8] [×10⁻⁶ cm/s] | remaining at 10 min, 0.5 µM [9] [%] | IC50 [10] [µM] | IC50 [11] [µM] | IC90 [3] [µM] | IC50 [12] [µM] | IC50 [13] [µM] | IC50 [14] [µM] | IC50 [15] [µM] | half-life [16] [h] | half-life [17] [h] | inhibition [18] [%] | Compound
1 | > 16.7 | > 30 | 0.129 | > 30 | 0.51 | 82.9 | 10.7 | 26.4 | 100 | – | – | – | – | – | – | – | – | – | – | NC/C=C/CN(C[C@H]1Cc2ccccc2CN1)[C@H]1CCCc2cccnc21
2 | 19.9 | > 30 | – | > 30 | 3.32 | 12.2 | 32.3 | 3.35 | 74.5 | 0.00547 | < 5 | 0.195 | < 5 | < 5 | < 5 | – | – | – | – | C(=C\CN(C[C@H]1Cc2ccccc2CN1)[C@H]1CCCc2cccnc21)/CNCC1CCOCC1
3 | 2.45 | > 30 | – | > 30 | 0.66 | – | 7.71 | – | 42 | – | – | – | – | – | – | 0.99 | – | – | – | CC1(C)CCC(NC/C=C/CN(C[C@H]2Cc3ccccc3CN2)[C@H]2CCCc3cccnc32)CC1
4 | > 33.3 | > 30 | > 33.3 | > 30 | 0.197 | 25.5 | 5.22 | 26.8 | 76.1 | – | – | – | – | – | – | 10.8 | – | – | – | CC(C)(CCN)CN(C[C@H]1Cc2ccccc2CN1)[C@H]1CCCc2cccnc21
5 | 18.8 | > 30 | 0.168 | > 30 | 2.04 | 2.2 | 16.8 | 1.75 | 16.1 | – | < 5 | – | < 5 | < 5 | < 5 | – | – | – | – | CC(C)(CCN(C[C@H]1Cc2ccccc2CN1)[C@H]1CCCc2cccnc21)CNC1CCC(F)(F)CC1
6 | > 16.7 | > 30 | 0.0246 | > 30 | 0.345 | – | 3.32 | 2 | 73.5 | – | – | – | – | – | – | > 20 | – | – | – | CC(C)(N)CCCN(C[C@H]1Cc2ccccc2CN1)[C@H]1CCCc2cccnc21
7 | > 30 | > 30 | – | – | – | – | – | 0.6 | – | – | – | 0.0326 | – | – | – | – | 1 | 6 | < 10 | NCCCCN(C[C@H]1Cc2ccccc2CN1)[C@H]1CCCc2cccnc21
8 | > 16.7 | > 30 | 0.158 | > 30 | 0.354 | 0.9 | 41.8 | 2.1 | 50 | – | – | – | – | – | – | – | – | – | – | c1ccc2c(c1)CN[C@@H](CN(CCCCNCC1CCCCC1)[C@H]1CCCc3cccnc31)C2
9 | 11.4 | > 30 | 0.832 | > 30 | 0.12 | 77.4 | 1.55 | 18 | 0.521 | – | – | – | – | – | – | 0.622 | – | – | – | c1ccc2c(c1)CN[C@@H](CN(CCCCN(Cc1ccncc1)Cc1ccncc1)[C@H]1CCCc3cccnc31)C2
10 | 11.5 | > 30 | 0.0363 | > 30 | 6.21 | 5.7 | 49.8 | 5.7 | 21.8 | 0.02 | < 5 | 0.416 | < 5 | < 5 | < 5 | 17.7 | – | – | – | CC(C)(CCN(C[C@H]1Cc2ccccc2CN1)[C@H]1CCCc2cccnc21)CNC1CCOCC1
11 | 5.61 | > 30 | – | > 30 | 2.61 | 43.4 | 10 | 10.5 | 69.9 | 0.00924 | < 5 | 0.191 | < 5 | < 5 | < 5 | – | – | – | – | C(=C\CN(C[C@H]1Cc2ccccc2CN1)[C@H]1CCCc2cccnc21)/CNC1CCOCC1
12 | > 33.3 | > 30 | 0.0547 | > 30 | 0.434 | 0.2 | 23.2 | 4.6 | 39.9 | – | – | – | – | – | – | – | – | – | – | c1ccc2c(c1)CN[C@@H](CN(CCCCNC1CCSCC1)[C@H]1CCCc3cccnc31)C2
13 | > 16.7 | > 30 | 0.069 | > 30 | 0.498 | 40.5 | 51.2 | – | 88.7 | – | – | – | – | – | – | > 20 | – | – | – | CC(C)(CN)CCN(C[C@H]1Cc2ccccc2CN1)[C@H]1CCCc2cccnc21
14 | 18.8 | > 30 | 0.541 | > 30 | 2.22 | 2.8 | 51.1 | 1.1 | 23.9 | – | < 5 | – | < 5 | < 5 | < 5 | 7.83 | – | – | – | CC1(C)CCC(NCC(C)(C)CCN(C[C@H]2Cc3ccccc3CN2)[C@H]2CCCc3cccnc32)CC1
15 | 22 | > 30 | – | > 30 | 0.709 | 5 | 2.98 | 1.8 | 31.2 | – | – | – | – | – | – | – | – | – | – | C(=C\CN(C[C@H]1Cc2ccccc2CN1)[C@H]1CCCc2cccnc21)/CNCc1ccccn1
16 | 1.2 | > 30 | 0.0508 | > 30 | 0.318 | 21.4 | 1.29 | 18.4 | 50.5 | – | – | – | – | – | – | – | – | – | – | NCc1ccccc1CN(C[C@H]1Cc2ccccc2CN1)[C@H]1CCCc2cccnc21
17 | 12.9 | > 30 | 0.664 | > 30 | 1.16 | 29.4 | 0.374 | 4.8 | 0.548 | – | – | – | – | – | – | – | – | – | – | c1ccc(CN(CCCCN(C[C@H]2Cc3ccccc3CN2)[C@H]2CCCc3cccnc32)Cc2ccccn2)nc1
18 | 11.5 | > 30 | 0.471 | > 30 | 0.348 | 43.5 | 1.4 | 9.1 | 0.432 | – | – | – | – | – | – | – | – | – | – | c1cncc(CN(CCCCN(C[C@H]2Cc3ccccc3CN2)[C@H]2CCCc3cccnc32)Cc2cccnc2)c1
19 | 6.98 | > 30 | – | > 30 | 1.45 | 4.9 | 2.12 | 0.9 | 31.7 | – | – | – | – | – | – | – | – | – | – | FC1(F)CCC(NC/C=C/CN(C[C@H]2Cc3ccccc3CN2)[C@H]2CCCc3cccnc32)CC1
20 | 0.605 | > 30 | 0.00926 | > 30 | 0.333 | 56.9 | 4.36 | 3.9 | 100 | – | – | – | – | – | – | – | – | – | – | NC/C=C\CN(C[C@H]1Cc2ccccc2CN1)[C@H]1CCCc2cccnc21
